Biological target: T1, Kinesin-like protein KIF18A (Homo sapiens, UniProt Q8NI77)
T1 sequence (Q8NI77 whole entry): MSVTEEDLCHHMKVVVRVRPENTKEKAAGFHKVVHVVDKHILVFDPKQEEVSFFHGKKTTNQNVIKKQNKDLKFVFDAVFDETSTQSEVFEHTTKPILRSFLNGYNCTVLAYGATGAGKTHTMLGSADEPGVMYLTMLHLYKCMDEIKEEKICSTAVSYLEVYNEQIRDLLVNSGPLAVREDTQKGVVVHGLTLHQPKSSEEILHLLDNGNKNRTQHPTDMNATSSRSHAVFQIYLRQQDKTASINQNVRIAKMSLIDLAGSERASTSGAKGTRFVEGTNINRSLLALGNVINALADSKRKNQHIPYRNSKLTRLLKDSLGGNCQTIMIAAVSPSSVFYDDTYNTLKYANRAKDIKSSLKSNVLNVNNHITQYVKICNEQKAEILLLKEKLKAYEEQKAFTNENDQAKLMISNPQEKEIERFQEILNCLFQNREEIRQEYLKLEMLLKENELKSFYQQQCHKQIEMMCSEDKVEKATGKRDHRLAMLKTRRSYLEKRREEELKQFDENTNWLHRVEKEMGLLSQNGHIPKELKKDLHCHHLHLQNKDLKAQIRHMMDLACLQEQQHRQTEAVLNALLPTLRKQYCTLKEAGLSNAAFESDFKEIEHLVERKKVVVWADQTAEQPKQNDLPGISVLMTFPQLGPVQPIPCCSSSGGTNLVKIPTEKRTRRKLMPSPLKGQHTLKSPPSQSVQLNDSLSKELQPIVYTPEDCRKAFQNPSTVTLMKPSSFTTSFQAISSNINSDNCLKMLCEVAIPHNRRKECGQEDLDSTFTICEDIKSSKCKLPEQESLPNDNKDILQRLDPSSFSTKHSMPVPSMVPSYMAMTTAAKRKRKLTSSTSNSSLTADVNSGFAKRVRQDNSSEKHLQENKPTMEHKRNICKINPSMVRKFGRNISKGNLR
Assay: Inhibition of recombinant His-tagged human KIF18A (1 to 467 residues) expressed in baculovirus expression system assessed as inhibition of microtubule-stimulated ATPase activity preincubated for 15 mins followed by ATP addition and further incubated for 15 mins and measured after 40 mins by ADP-Glo reagent based assay

Cc1cc(NC(=O)c2cnc(S(=O)(=O)C3CC3)cc2N2CCC3(CC2)CC3)nc(N2CCC(F)(F)CC2)n1
IC50: 48 nM
